Experiments:
[1] = tested on: HIV-1RF-infected H9 cells; assay: HIV-induced syncytium formation: fusion of intact H9 cells with HIV-1RF-infected H9 cells; assay type: cell-based; settings: H9 + HIV-1RF-infected H9 cells, 6 to 15 hours at 37° C., FIG. 1
From the text: For all the curves, the effect of ajoene enantiomers and enantiomer mixtures on the fusion of cultured, intact H9 cells with HIV-1RF-infected H9 cells is disclosed. The vertical graph axis expresses the maximum amount of syncytia formed in the absence of the compounds (100 percent), while the points on the curves represent percentages of such an amount of syncytia formed in the presence of varying concentrations of the compounds and compound mixtures (micromoles per liter).
Another such method is based on the inhibition of HIV-mediated syncytium formation, a phenomenon known to depend on the functional activity of integrins. The purified Z enantiomers, racemic E-ajoene, and the original 3:1 mixture of racemic Z- and E-ajoenes were taken up in DMSO at a concentration of 10 mg/mL. Dilutions were made in RPMI 1640 medium containing 10% fetal calf serum and 10 mM HEPES (cRPMW). HIV-1RF-infected H9 cells and uninfected H9 cells were washed with cRPMI and resuspended in cRPMI at a density of 4×10^6 per mL. Uninfected cells (50 μL) were mixed with serial dilutions of the compounds (100 μL) and incubated at 37° C. for30 minutes before adding and mixing 50 μL of infected H9 cells. The plates were incubated at 37° C. for 6 to 15 hours before scoring syncytium formation.
The purified enantiomers were taken up in DMSO at a concentration of 10 mg/mL. Dilutions were made in RPMI 1640 medium containing 10% fetal calf serum and 10 mM HEPES (cRPMI). H9 cells (ATCC, Rockville, Md.) infected with HIV-1RF, (NIH AIDS Repository, Rockville, Md.) and uninfected H9 cells were washed with cRPMI and resuspended in cRPMI at a density of 4×10^6 per mL. Uninfected cells (50 μL) were mixed with serial dilutions of the compounds (100 μL) and incubated at 37° C. for 30 min before adding and mixing 50 μL of infected H9 cells. The plates were incubated at 37° C. for 6 to 15 hours before scoring syncytium formation.

[2] = target: T1, VLA-4 (Homo sapiens, UniProt P05556+P13612); assay: Inhibition of VLA-4-mediated adhesion of enzyme-labeled PM1 cells to VCAM-1-coated substrata; assay type: cell-based; settings: PM1 cells on immobilized VCAM-1; listed as Z(−) enantiomer of ajoene
T1 construct: host or cells: PM1 cells (VLA-4); COS7 cells secrete the VCAM/IgG ligand
T1 sequence (P13612 34-1032): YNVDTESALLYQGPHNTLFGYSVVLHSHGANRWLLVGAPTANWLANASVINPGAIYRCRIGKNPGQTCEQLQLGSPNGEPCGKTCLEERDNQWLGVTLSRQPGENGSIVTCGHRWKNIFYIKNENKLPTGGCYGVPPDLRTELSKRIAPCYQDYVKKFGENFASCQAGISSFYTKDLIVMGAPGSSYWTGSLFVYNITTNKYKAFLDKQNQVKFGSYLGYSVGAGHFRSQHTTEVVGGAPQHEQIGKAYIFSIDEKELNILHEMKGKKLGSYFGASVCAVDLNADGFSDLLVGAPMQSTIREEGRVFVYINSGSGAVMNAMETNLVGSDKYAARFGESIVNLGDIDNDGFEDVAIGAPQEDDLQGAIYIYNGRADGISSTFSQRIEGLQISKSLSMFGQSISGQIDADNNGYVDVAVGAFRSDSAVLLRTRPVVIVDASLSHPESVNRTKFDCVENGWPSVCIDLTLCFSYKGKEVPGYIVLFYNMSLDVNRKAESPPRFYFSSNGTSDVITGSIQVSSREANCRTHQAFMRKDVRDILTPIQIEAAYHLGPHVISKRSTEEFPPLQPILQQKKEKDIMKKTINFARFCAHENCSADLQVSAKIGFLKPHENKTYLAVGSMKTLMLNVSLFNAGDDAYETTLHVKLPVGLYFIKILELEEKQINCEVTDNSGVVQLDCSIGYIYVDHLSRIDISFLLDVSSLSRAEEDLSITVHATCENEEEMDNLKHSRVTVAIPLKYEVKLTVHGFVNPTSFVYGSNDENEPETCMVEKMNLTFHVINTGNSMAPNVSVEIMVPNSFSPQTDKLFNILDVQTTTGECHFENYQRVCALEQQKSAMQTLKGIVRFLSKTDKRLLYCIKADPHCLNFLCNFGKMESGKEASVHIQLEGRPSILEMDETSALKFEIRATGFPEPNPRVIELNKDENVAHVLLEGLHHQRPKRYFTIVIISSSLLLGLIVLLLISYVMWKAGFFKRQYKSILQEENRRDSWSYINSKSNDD
T1 sequence (P05556 21-798): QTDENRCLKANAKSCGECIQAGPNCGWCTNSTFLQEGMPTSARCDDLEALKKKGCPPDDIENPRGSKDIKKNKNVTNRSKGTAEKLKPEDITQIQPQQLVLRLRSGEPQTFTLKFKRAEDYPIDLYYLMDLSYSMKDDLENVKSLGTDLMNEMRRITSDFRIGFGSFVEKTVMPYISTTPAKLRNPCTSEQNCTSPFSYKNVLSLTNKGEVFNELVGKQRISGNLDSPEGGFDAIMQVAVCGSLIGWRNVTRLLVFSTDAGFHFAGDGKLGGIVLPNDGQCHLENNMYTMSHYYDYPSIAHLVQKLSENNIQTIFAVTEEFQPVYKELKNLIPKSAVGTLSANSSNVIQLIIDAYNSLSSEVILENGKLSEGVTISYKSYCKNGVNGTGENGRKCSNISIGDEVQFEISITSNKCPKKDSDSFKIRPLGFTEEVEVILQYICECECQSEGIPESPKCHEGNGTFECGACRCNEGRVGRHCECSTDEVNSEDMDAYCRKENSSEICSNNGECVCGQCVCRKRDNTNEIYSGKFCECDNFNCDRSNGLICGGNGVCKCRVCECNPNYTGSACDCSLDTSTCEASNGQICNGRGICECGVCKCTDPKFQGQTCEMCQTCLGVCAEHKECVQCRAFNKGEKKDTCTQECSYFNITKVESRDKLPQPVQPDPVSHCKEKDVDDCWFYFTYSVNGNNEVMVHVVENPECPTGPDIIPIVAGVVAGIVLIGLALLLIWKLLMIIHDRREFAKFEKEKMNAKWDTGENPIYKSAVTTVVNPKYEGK
Method: In addition, the invention discloses methods whereby the integrin-modulating activity of ajoene enantiomers may be assessed. One such method involves VLA-4-mediated adhesion of enzyme-labeled PM1 cells to VCAM-1-coated artificial substrata. Specifically, the cells were exposed to isolated ajoene enantiomers (or the vehicle thereof) and allowed to adhere to immobilized VCAM-1. Thereafter, the adherent cells were lyzed and, following addition of the substrate of the enzyme and incubation, the activity of the enzyme was measured spectrophotometrically. The value of this parameter, characterizing the number of the adherent cells, is inversely proportional to the integrin-modulating activity of the compound.
Integrin-modulating activity of the enantiomers was compared in a well-defined system of inhibition of VLA-4-mediated adhesion of enzyme-labeled PM1 cells (NIH AIDS Repository, Rockville, Md.) to VCAM-1-coated artificial substrata. In this experiment, enzyme-linked immunosorbent assay (ELISA) plates were coated with rabbit anti-human IgG (Fc-specific). Aliquots of 100 μL of supernatant from VCAM/IgG-secreting COS7 cells were added to each well, the plates incubated at 37° C. for 1 hour, and the wells washed with phosphate-buffered saline (PBS). […] The reaction was stopped with 0.5 M H2SO4, andthe optical density of the wells, read at 450 nm. […]

| Compound | IC100 of syncytium formation ([1]; listed as Z(+)) [micromoles per liter] | adhesion-inhibiting activity relative to the other enantiomers / original 3:1 mixture [2] [fold] | IC100 of syncytium formation [1] [micromoles per liter] | IC100 of syncytium formation ([1]; listed as Z(−) enantiomer) [micromoles per liter] |
| --- | --- | --- | --- | --- |
| C=CCSS/C=C\C[S+]([O-])CC=C (stereo not drawn) [Z(+)-ajoene, Z(+)-4,5,9-trithiadodeca-1,6,11-triene-9-oxide] | 50 |  |  |  |
| C=CCSS/C=C\C[S+]([O-])CC=C (stereo not drawn) [Z(−)-ajoene, Z(−)-4,5,9-trithiadodeca-1,6,11-triene-9-oxide] |  | 4 | 12.5 | 12.5 |
| C=CCSSC=CC[S+]([O-])CC=C (racemic) [unseparated 3:1 mixture of racemic Z- and E-ajoenes, 4,5,9-trithiadodeca-1,6,11-triene-9-oxide, reference compound] |  |  | 50 |  |
| C=CCSS/C=C/C[S+]([O-])CC=C (racemic) [racemic E-ajoene, reference compound] |  |  | 50 |  |

Source: patent US7321002B2, “Chiral integrin modulators and methods of use thereof” (Billings Pharmaceuticals, Inc., priority 2000, dated 2008)
